According to US7045145B1, “Transdermal contraceptive delivery system and process” (Agile Therapeutics, Inc., priority 1999, dated 2006):

Assay: clinical
Conditions: female, human, in vivo
Method: Serum level of levonorgestrel (LNG), ethinyl estradiol (EE) as well as luteinizing hormone (LH), progesterone (P) and estradiol (E2) were analyzed by radio-immunassay methods.
The total duration of study for each subject participating in this study is 5 months. It consists of one base-line period followed by three treatment periods and one recovery period. Each period is one menstrual cycle of the person subjects.
Subjects attending this 5 month-long study were randomly divided and sequentially admitted into three study groups. Group A, B and C subjects received one piece of 7.5 cm^2, 10.0 cm^2 and 12.5 cm^2 TCDS patch weekly, respectively, for three consecutive weeks I each of the three treatment periods. During the baseline and recovery periods, all the subjects received only the placebo patch of the corresponding size for three consecutive weeks. During the fourth week of each study period, no patch was worn by the subjects in any treatment groups.
According to the blood sampling schedule, a total of 57 blood samples (about 10 ml per sample) were taken from each subject during the 5-month study. During the three treatment cycles, 15 samples were taken through out the 21 days of patch wearing period. At the end of the third treatment cycle, 5 additional blood samples were taken during the 24 hours post patch removal which allows the elimination pharmacokinetics of drugs to be studied. […]

For C#C[C@]1(O)CC[C@H]2[C@@H]3CCC4=CC(=O)CC[C@@H]4[C@H]3CC[C@@]21CC [levonorgestrel], the Cmax was greater than 2 ng/mL and the “serum levels compared with the level considered necessary for effective contraception in women” value was “exceeded the level (200–600 pg/ml)”.
